Inconclusive results are not listed. Active and inactive are the calls of the source. The rule behind the calls is not given here.
tested on: Mycobacterium tuberculosis non-replicating, growth inhibition; test: growth inhibition of non-replicating M. tuberculosis (AID 488890)

Row | Structure (SMILES) | IC50
1 | O=[N+]([O-])c1ccc(CN2CCN(c3ccc(F)cc3)CC2)o1 | 0.45 µM
2 | CCOC(=O)COc1ccc(/C=C2\NC(=S)N(CC)C2=O)cc1 | 7.01 µM
3 | Cc1ccn2nc(S(=O)(=O)Nc3c(F)cccc3F)nc2n1 | 17.5 µM (inactive)
4 | Cc1cc(C)n2[nH]c(=O)c(N=Nc3cccc(Cl)c3)c2n1 | 4.13 µM
5 | Nc1nc2ccccc2n1CCOc1ccccc1Cl | 7.58 µM
6 | O=S(=O)(Nc1ccc(O)c2ccccc12)c1ccc(F)cc1 | 6.47 µM
7 | O=C(OCC(=O)N1CCc2ccccc21)c1ccc([N+](=O)[O-])cc1 | 12.5 µM (inactive)
8 | COc1ccc(C(=O)C(CN2CCCC2)c2ccccc2)cc1 (configuration not stated) | 5.58 µM
9 | OC(CNCCc1ccc(C(F)(F)F)cc1)COc1ccc2ccccc2c1 (configuration not stated) | 8.28 µM
10 | COc1cc(C(=O)N/N=C/c2cc([N+](=O)[O-])cs2)cc(OC)c1OC | 3.58 µM
11 | O=C(c1ccc([N+](=O)[O-])cc1[N+](=O)[O-])N1CCc2ccccc21 | 3.34 µM
12 | CC(=O)N(c1nnc(-c2ccc(C)cc2)s1)C1CCCC1 | 26.2 µM (inactive)
13 | CN(C)c1ccc(NC(=O)COC(=O)c2cc(Cl)ccc2[N+](=O)[O-])cc1 | 8.95 µM
14 | O=C(Nc1nnc(-c2ccc(F)cc2)o1)c1cc(Cl)sc1Cl | 7.95 µM
15 | CCOC(=O)c1c(C)[nH]c(C)c1C(=O)COC(=O)c1ccc([N+](=O)[O-])s1 | 1.65 µM
16 | COC(=O)c1ccc(COC(=O)c2ccccn2)cc1 | 7.11 µM
17 | CCOC(=O)Cc1c(C)nc2c(-c3ccc(Cl)cc3)c[nH]n2c1=O | 3.93 µM
18 | CCOC(=O)C(=O)NC12CC3CC(CC(C3)C1)C2 | 6.5 µM
19 | Cc1cccc(OC(=O)c2sc3ncn(C)c(=O)c3c2C)c1 | 4.61 µM
20 | Cc1noc2ncnc(Sc3ccc(Br)cc3)c12 | 6.24 µM
21 | CCCC(=O)N1CCC(Cc2ccccc2)CC1 | 3.47 µM
22 | O=C(N/N=C/c1ccc(Br)s1)c1cccnc1 | 9.43 µM
23 | CC/C(=C\c1oc2cc3ccccc3cc2[n+]1CC)Nc1ccccc1 | 3.14 µM
24 | CCOc1cccc2cc(C(=O)Nc3nccs3)c(=O)oc12 | 2.26 µM

Row | Structure (SMILES) | IC50
25 | Cc1nc([N+](=O)[O-])c(Br)n1CC(=O)c1ccccc1 | 25.5 µM (inactive)
26 | NC(=O)COc1ccc2cc(-c3ccc(F)cc3)c(=O)oc2c1 | 18 µM (inactive)
27 | O=C(NCc1ccc2c(c1)OCO2)c1ccc(Cl)s1 | 1.73 µM
28 | Cc1ccc(S(=O)(=O)NCC(=O)OCCOc2cccc(Cl)c2)cc1 | 27.7 µM (inactive)
29 | O=C(N/N=C/c1cc(Br)ccc1O)c1ccccc1Cl | 0.48 µM
30 | O=C(Nc1ncc(Cc2ccccc2Cl)s1)C1=NCCN1 | 4.18 µM
31 | CCCC(=O)OCCNc1cc(Sc2nccn2C)c2nonc2c1[N+](=O)[O-] | 2.57 µM
32 | Cc1noc2ncnc(Sc3ccccc3Cl)c12 | 16.4 µM (inactive)
33 | CCOc1ccc(NC(=O)CCc2ccc(C)o2)cc1 | 7.77 µM
34 | CCCCC1CCC(C(=O)Nc2ccc(S(=O)(=O)Nc3nccs3)cc2)CC1 (configuration not stated) | 7.7 µM
35 | Cc1ccc(CNC(=O)c2ccc([N+](=O)[O-])o2)cc1 | 0.46 µM
36 | NC(=S)n1[nH]c(-c2ccc([N+](=O)[O-])cc2)c(N=Nc2ccc(O)cc2)c1=O | 18.5 µM (inactive)
37 | Cc1ccc(NCCC(=O)c2cccs2)cc1Cl | 3.56 µM
38 | CC1=CC2=NC(=O)/C(=C\c3ccc(OC(=O)c4ccco4)cc3)C(=N)N2O1 | 5.99 µM
39 | COc1cccc(OC(=O)c2cc3ccccc3oc2=O)c1 | 14.2 µM (inactive)
40 | CCCOC(=O)c1ccc(-c2ccc(C=O)o2)cc1 | 1.27 µM
41 | CCCn1c(=O)c(C(=O)N/N=C/c2ccccc2F)c(O)c2ccccc21 | 13.3 µM (inactive)
42 | O=C(COc1ccc2ccccc2c1)N/N=C/c1ccccn1 | 6.72 µM
43 | N=c1oc2ccccc2cc1C(=O)Nc1ccccc1 | 33 µM (inactive)
44 | COc1cccc(CN2CCC(N(CCc3ccccc3)Cc3ccccc3)CC2)c1OC | 14.3 µM (inactive)
45 | O=C(Nc1cccc(NC(=O)c2cccs2)c1)c1ccc([N+](=O)[O-])o1 | 5.43 µM
46 | O=C(CN1CCN(c2ccccc2)CC1)Nc1nnc(-c2ccccc2)s1 | 9.53 µM
47 | CCC(C)c1ccc(O)c(/C=N/O)c1 (configuration not stated) | 2.43 µM
